Data on 8 compounds can be found in the supplement of paper PMC5908809.

What all share (assay): relative IC50 (inflection point of fitted viability curve, relative to fitted max inhibition); higher = less sensitive
What all share (conditions): 72 h

Experiment [1] relates to YT (IL-2 2.5 ng/mL). Here is the method: (§1)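 Drug sensitivity and resistance testing: 5 concentrations over a 10,000-fold range, 72 h at 37 °C, viability by CellTiter-Glo normalised to DMSO and benzethonium chloride controls. IC50 is the inflection point of a logistic fit (min fixed at 0, max fitted), so it is relative to the fitted maximal inhibition. Kept only where fitted max inhibition is at least 50%.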

In experiment [2] the test system is KAI3 (IL-2 2.5 ng/mL). How it is done: as §1
Experiment [3] deals with IMC-1 (IL-2 20 ng/mL). Here is the method:
as §1

The subject of experiment [4] is normal primary NK cells, pool 2 (3 donors) (IL-2 2.5 ng/mL). How it is done:
as §1

In experiment [5] the test system is KHYG-1 (IL-2 2.5 ng/mL). Here is the method:
as §1

In experiment [6] the test system is SNK-6 (IL-2 2.5 ng/mL). How it is done:
as §1

The test system of experiment [7] is NKL (IL-2 2.5 ng/mL). How it is done: as §1
Experiment [8] deals with normal primary NK cells, pool 3 (3 donors) (IL-2 2.5 ng/mL). How it is done:
as §1

The test system of experiment [9] is normal primary NK cells, pool 1 (3 donors), resting (IL-2 0 ng/mL). How it is done:
as §1

The subject of experiment [10] is DERL-7 (IL-2 2.5 ng/mL). Here is the method:
as §1

Experiment [11] has as its system normal primary NK cells, pool 1 (3 donors) (IL-2 2.5 ng/mL). Here is the method: as §1
The subject of experiment [12] is NK-92 (IL-2 2.5 ng/mL). Here is the method:
as §1

The test system of experiment [13] is NK-YS (IL-2 2.5 ng/mL). Here is the method:
as §1

Molecules are shown by their SMILES.

Turning to `Cn1cc(CNCC2CCN(c3ncc(C(=O)NO)cn3)CC2)c2ccccc21` [Quisinostat], the “relative IC50” value in experiment [1] worked out at 58.3 nM; in [2] it was 14.7 nM; in [3], 35.8 nM; in [4] it was 5.99 nM; in experiment [5], 21.4 nM; in [6], 90.1 nM. Besides, the “relative IC50” value in experiment [7] was determined as 11 nM; in experiment [8] it was 13.1 nM; in experiment [9] it was 2.39 nM; in experiment [10], 10.6 nM; in experiment [11] it was 7.78 nM; in experiment [12], 39.5 nM. Besides, in experiment [13], the “relative IC50” value was 20.3 nM.
`CN(C)Cc1ccc(S(=O)(=O)n2ccc(/C=C/C(=O)NO)c2)cc1` [Resminostat]: the “relative IC50” value in experiment [1] worked out at 1460 nM; in experiment [2], 304 nM; in [3] it was 3480 nM; in experiment [4] it was 1160 nM; in [5], 731 nM; in experiment [6] it was 829 nM. For the same compound, the “relative IC50” value was found to be 258 nM in [7]; 1720 nM in [8]; 268 nM in experiment [9]; 1040 nM in experiment [10]; 667 nM in experiment [11]; 629 nM in [12]. For the same compound, the “relative IC50” value in [13] stood at 1300 nM.
Turning to `CN(C)C[C@@H]1CCn2cc(c3ccccc32)C2=C(C(=O)NC2=O)c2cn(c3ccccc23)CCO1` [Ruboxistaurin], the “relative IC50” value in experiment [1] was determined as 2730 nM; in experiment [2], 1430 nM; in experiment [3], 4180 nM; in [4], 2110 nM; in experiment [5], 1290 nM; in experiment [6], 2810 nM. In addition, the “relative IC50” value in experiment [7] was 1240 nM; in experiment [8], 2000 nM; in experiment [9], 1070 nM; in experiment [10], 1140 nM; in experiment [11], 1430 nM; in experiment [12], 2950 nM. Besides, the “relative IC50” value in experiment [13] turned out to be 1540 nM.
As for `O=[N+]([O-])c1ccc2c(c1)S(=O)(=O)C=C2` [Stattic], the “relative IC50” value in [1] came to 1770 nM; in [2] it was 1100 nM; in experiment [3] it was 18900 nM; in experiment [4] it was 1660 nM; in [5], 1700 nM; in experiment [6], 2020 nM. Further, the “relative IC50” value in [7] was determined as 4710 nM; in [8], 1850 nM; in experiment [9], 1170 nM; in experiment [10], 1220 nM; in experiment [11] it was 1110 nM; in experiment [12] it was 1800 nM. Also, the “relative IC50” value in [13] is 6720 nM.
Turning to `NC(=O)Nc1sc(-c2ccc(F)cc2)cc1C(N)=O` [TPCA-1], the “relative IC50” value in experiment [1] was found to be 912 nM; in experiment [2] it was 218 nM; in experiment [3], 7190 nM; in [4] it was 658 nM; in experiment [5], 381 nM; in experiment [6], 514 nM. Also, the “relative IC50” value in [7] was 274 nM; in experiment [8], 1020 nM; in [9], 2310 nM; in experiment [10], 367 nM; in experiment [11] it was 997 nM; in [12] it was 860 nM. In experiment [13], the “relative IC50” value is 1440 nM.
On to `Cn1cncc1[C@@](N)(c1ccc(Cl)cc1)c1ccc2c(c1)c(-c1cccc(Cl)c1)cc(=O)n2C` [Tipifarnib], for which the “relative IC50” value in [1] is 349 nM; in [2], 94.8 nM; in experiment [3], 1880 nM; in experiment [4], 1580 nM; in experiment [5] it was 35.2 nM; in [6], 74.1 nM. Moreover, the “relative IC50” value is 401 nM in [7]; 723 nM in [8]; 264 nM in experiment [9]; 91.8 nM in experiment [10]; 1110 nM in [11]; 270 nM in [12]. The “relative IC50” value in experiment [13] turned out to be 61.6 nM.
As for `CC[C@@]1(O)C(=O)OCc2c1cc1n(c2=O)Cc2cc3c(CN(C)C)c(O)ccc3nc2-1` [Topotecan], the “relative IC50” value in experiment [1] was determined as 52.5 nM; in experiment [2] it was 42 nM; in experiment [3] it was 30.8 nM; in [4] it was 1320 nM; in experiment [5], 33.8 nM; in [6] it was 40.2 nM. Further, the “relative IC50” value stood at 35 nM in experiment [7]; 1030 nM in experiment [8]; 2880 nM in [9]; 54.9 nM in experiment [10]; 772 nM in experiment [11]; 20.5 nM in experiment [12]. For the same compound, the “relative IC50” value in experiment [13] was 39.6 nM.
For the compound `CN[C@@H]1C[C@H]2O[C@@](C)([C@@H]1OC)n1c3ccccc3c3c4c(c5c6ccccc6n2c5c31)C(=O)N[C@H]4O` [UCN-01], the “relative IC50” value was determined as 184 nM in experiment [1]; 21.3 nM in experiment [2]; 375 nM in experiment [3]; 75.8 nM in experiment [4]; 24.9 nM in experiment [5]; 15.3 nM in experiment [6]. Also, the “relative IC50” value stood at 53.3 nM in experiment [7]; 126 nM in experiment [8]; 204 nM in experiment [9]; 27 nM in [10]; 97.1 nM in [11]; 39.3 nM in experiment [12]. Moreover, the “relative IC50” value in experiment [13] was determined as 51.1 nM.
